Experimental data as given in the NIST ThermoML archive (doi:10.1016/j.jct.2013.06.007).
Several values for one entry are separate records, joined by “and”; a condition that tells them apart may be missing. Equal values may be shown once. ± gives the expanded uncertainty stated by the source.

Legend:
[1] = Molar enthalpy of transition or fusion; settings: Crystal; DSC
[2] = Crystal; DTA

- Molar enthalpy of transition or fusion [1]: 6.75 kcal/mol and 6.39 kcal/mol
- Normal melting temperature [2]: 53.47 ± 0.48 °C and 52.70 ± 0.87 °C
SMILES: CCOC(=O)NCCOc1ccc(Oc2ccccc2)cc1 [fenoxycarb]
